Reference: US20260000632A1, “STRUCTURALLY MODIFIED FATTY ACIDS FOR IMPROVING GLYCEMIC CONTROL AND TREATING INFLAMMATORY BOWEL DISEASE” (Northsea Therapeutics B.V., priority 2018, published 2026)
Values joined by “and” are separate entries in the source; they are usually repeats but may differ in a detail not shown here. Identical values can stand only once.

Assays:
[1] = Excretion balance of radioactivity after single oral [14C]-Compound B; format: in vivo, rat; conditions: male albino rats, single oral [14C]-Compound B 50 mg/kg
Protocol: To assess Compound B clearance via urine versus feces, the excretion pattern of a single oral dose of [14C]-Compound B was determined in male albino rats. […] The total excretion of radioactivity following oral administration was >95% within the first 48 hours. Excretion via the urine accounted for 12% of the administered dose. […]

[2] = test system: DSS-induced colitis C56BL/6J mice; assay: DSS-induced colitis mouse model (body weight, colon length, survival, histology); format: in vivo; conditions: for Difference in weight loss between control and treated group / Survival rate 7 days after colitis was induced: 1.5% DSS; for Survival rate 7 days after colitis was induced: C56BL/6J mice (control 50%)
Source text: The dextran sodium sulphate-induced (DSS)-induced colitis model is well known in the art as a reproducible chemical induction of intestinal inflammation animal model. See, e.g., Eichele et al., World J Gastroenterol, 2017, 23(33):6016-6029; Randhawa et al., Korean J. Physiol. Pharmacol. (2014) 18:279-288; Jurjus et al., J. Pharmacol. Toxicol., Methods, 2004, 50:81-92; Gaudio et al., Dig. Dis. Sci., 1999, 44:1458-1475. The DSS-induced colitis model morphologically and symptomatically resembles epithelial damage seen in human IBD, and thus has become the most extensively employed experimental model of intestinal inflammation. Okayasu et al., Gastroenterology, 1990, 98:694-702; Kawada et al., World J. Gastroenterol. 2007, 13:5581-5593. The DSS-induced colitis model is most similar to ulcerative colitis in humans, but also has many similarities to Crohn's disease.
DSS is a water soluble, negatively charged sulfated polysaccharide with a highly variable molecular weight ranging from 5 to 1400 kDa. Murine colitis results from administration of about 1% to 3% DSS to the drinking water of a mouse strain susceptible to DSS-induced colitis. Without being bound by theory, the sulfated polysaccharide may not directly induce intestinal inflammation, but may instead act as a direct chemical toxin to colonic epithelium resulting in epithelial cell injury. It is thought that DSS disrupts the intestinal epithelial monolayer lining, leading to the entry of luminal bacteria and associated antigens into the mucosa and allowing the dissemination of proinflammatory intestinal contents into underlying tissue. […] Perse et al., J. Biomed. Biotechnol., 2012:718617.
The C56BL/6J mouse is a strain susceptible to DSS-induced colitis. To evaluate the efficacy and dosage of Compound B in treatment of DSS-induced colitis, inflammation was induced in 30 9-week old C56BL/6J mice by adding 1.5% DSS to the drinking water for 7 days. The mice were fed a standard chow diet that consisted of 30 weight percent wheat. The mice were divided into three groups of 10, and for each day of DSS administration each group was administered via oral gavage either (1) 100 μL corn oil per day (Control), (2) 126 mg/kg Compound B (dissolved in 100 μL corn oil) per day (“Compound B-Low” or “Compound B-L”), or (3) 252 mg/kg Compound B (dissolved in 100 μL corn oil) per day (“Compound B-High” or “Compound B-H”). Following the 7-day period of DSS induction, mice were sacrificed and their intestinal tissue was used for histopathological and gene expression analysis.
To assess the efficacy of Compound B in the treatment of DSS-induced colitis in mice, the body weight of mice was monitored. Weight loss is an indicator of colitis severity.
To assess the efficacy of Compound B in the treatment of DSS-induced colitis in mice, colon length of test mice was measured. Colon length correlates inversely with inflammation.
Histopathological analysis was performed on sections of formalin-fixed paraffin embedded tissue after hematoxylin and eosin (H&E) staining. Colonic samples were analyzed by histopathology for assignment of scores for colitis activity as described in Neurath et al., J. Exp. Med., 2002, 195:1129-1143. Briefly, the degrees of inflammation and epithelial and mucosal injury on microscopic cross-sections of the colon were graded semi-quantitatively from 0 to 4. For inflammation, a score of 0=no evidence for inflammation; 1=low level of inflammation with scattered infiltrating mononuclear cells (1-2 foci only); 2=moderate inflammation with multiple foci; 3=high level of inflammation with increased vascular density and marked wall thickening; and 4=maximal severity of inflammation with transmural leukocyte infiltration and loss of goblet cells. For injury, a score of 0=no epithelial injury; 1=occasional epithelial lesion; 2=1-2 foci of ulcerations; and 3=extensive ulcerations. […]

plasma insulin = assay: Plasma insulin at 24 h in lean male SPD rats; format: in vivo, rat; conditions: Compound A 74 mg/kg or Compound B 84 mg/kg oral, non-significant
Protocol: To establish the acute effects of oral administration of Compound A and Compound B upon active GLP-1 and insulin concentrations, lean (about 300 g) male Sprague-Dawley (SPD) rats were divided into groups (n=6-8) and fed 74 and 84 mg/kg body weight of Compound A or Compound B respectively, either with or without concurrent administration of a dipeptidyl peptidase 4 (DPP-4) inhibitor 60 minutes prior to an oral glucose tolerance test (OGTT) as outlined below. Parallel groups receiving either corn oil alone (corn oil+vehicle, n=10) or corn oil and a DPP-4 inhibitor (“DPP-4 i”) (corn oil+ (DPP-4 i), n=10) were included as controls. The DPP-4 inhibitor was linagliptin.
A second oral dose of 74 and 84 mg/kg bodyweight of Compound A or Compound B respectively was administered at 240 minutes and ad lib feeding was initiated. A second dose of DPP-4 inhibitor was administered at 480 mins prior to lights out. Blood samples were collected at 24 h for measurement of active GLP-1 and insulin. All values are mean, figures depict mean values (SEM).

[3] = high dose, 252 mg/kg per day, 7 days 1.5% DSS

Structure (SMILES): CC/C=C\C/C=C\C/C=C\C/C=C\C/C=C\CCCCSC(CC)(CC)C(=O)O [Compound B, 2-ethyl-2-((5Z,8Z,11 Z,14Z,17Z)-icosa-5,8,11,14,17-pentaenylthio)butanoic acid]
- Total excretion of radioactivity within the first 48 hours [1]: > 95%
- % Recovery of Administered Dose (Mean), Cage debris (0-168 h) ([1]; n = 3): 0.038%
- % Recovery of Administered Dose (Mean), Carcass (168 h) ([1]; n = 3): 1.14%
- % Recovery of Administered Dose (Mean), Faeces (0-168 h) ([1]; n = 3): 86% and 85.8%
- % Recovery of Administered Dose (Mean), Mean total radioactivity (0-168 h) ([1]; n = 3): 101%
- % Recovery of Administered Dose (Mean), Urine (0-168 h) ([1]; n = 3): 12% and 12.4%
- % Recovery of Administered Dose (Mean), Cage wash (0-168 h) ([1]; n = 3, includes final cage wash): 1.27%
- Difference in weight loss between control and treated group ([2]; 126 mg/kg per day (Compound B-Low) oral gavage, C56BL/6J mice): statistically significant after 7 days
- Difference in weight loss between control and treated group ([2]; 252 mg/kg per day (Compound B-High) oral gavage, C56BL/6J mice): statistically significant after 6 days
- Body weight loss compared to control ([2]; 126 and 252 mg/kg per day oral gavage, 7 days 1.5% DSS, C56BL/6J mice): dose-dependent reduction in weight loss
- Histology of colon cross-sections in treated mice ([2]; 126 and 252 mg/kg per day, 7 days 1.5% DSS): dose-dependent attenuation of inflammatory infiltrates and edema
- Colon length compared to control ([2]; both low (126 mg/kg) and high (252 mg/kg) doses per day, 7 days 1.5% DSS, C56BL/6J mice): significant increase in colon length
- Survival rate 7 days after colitis was induced ([2]; high dose, 252 mg/kg per day oral gavage): 100%
- Histological cross-sections of colon, morphology [2, 3]: almost complete rescue
- Inflammation and epithelial and mucosal injury versus untreated mice [2, 3]: lower
- Histological scores of colon versus untreated mice ([2]; high dose, 252 mg/kg per day, 7 days 1.5% DSS, H&E): significantly lower
- Survival rate 7 days after colitis was induced ([2]; low dose, 126 mg/kg per day oral gavage): 90%
- Increase in plasma insulin concentration at 24 h versus corn oil+vehicle and corn oil+DPP4 inhibitor (plasma insulin; compound alone): 25%
- Increase in plasma insulin concentration at 24 h versus corn oil+vehicle and corn oil+DPP4 inhibitor (plasma insulin; in combination with DPP4 inhibitor): 40%
